Assay results as given in the NIST ThermoML archive (doi:10.1016/j.fluid.2014.01.034).

Columns and labels:
[1] = for mass density: 348.15 K, 101.33 kPa, Liquid, Vibrating tube method; for Normal melting temperature: Crystal, DTA
[2] = Boiling temperature at pressure P; conditions: Liquid, Ebulliometric method (Recirculating still)
[3] = Molar enthalpy of transition or fusion; conditions: Crystal; DSC

O=[N+]([O-])c1cccc(Cl)c1Cl [1,2-dichloro-3-nitrobenzene]
Conditions	Molar enthalpy of transition or fusion [kcal/mol]	Normal melting temperature [°C]	mass density [kg/m3]
[1]	–	61.8	1533
[3]	5.33	–	–

[2]
Conditions	Boiling temperature at pressure P [°C]
3.26 kPa	148.61
3.72 kPa	151.73
4.07 kPa	153.89
5.48 kPa	161.26
6.14 kPa	164.16
7.17 kPa	168.22
8.84 kPa	174
10.02 kPa	177.31
11.41 kPa	180.98
12.61 kPa	183.86
13.71 kPa	186.30
15.55 kPa	190.1
16.52 kPa	191.88
18.33 kPa	195.16
20.52 kPa	198.69
21.66 kPa	200.30
22.76 kPa	201.89
25.1 kPa	205.06
27.58 kPa	208.17
30.63 kPa	211.69
35.11 kPa	216.38
40.91 kPa	221.76
46.97 kPa	226.77
50.86 kPa	229.71
54.85 kPa	232.54
57.81 kPa	234.64
61.11 kPa	236.77
63.43 kPa	238.11
65.25 kPa	239.22
70.98 kPa	242.53
76.92 kPa	245.8
80.62 kPa	247.66
85.76 kPa	250.19
91.3 kPa	252.79
96.08 kPa	254.94
101.3 kPa	257.18

O=[N+]([O-])c1ccc(Cl)c(Cl)c1 [3,4-dichloro-1-nitrobenzene]
Conditions	Molar enthalpy of transition or fusion [kcal/mol]	Normal melting temperature [°C]	mass density [kg/m3]
[1]	–	42.2	1533
[3]	4.24	–	–

[2]
Conditions	Boiling temperature at pressure P [°C]
3.01 kPa	143.59
4.22 kPa	151.87
4.98 kPa	156.10
5.82 kPa	160.09
6.97 kPa	164.90
7.4 kPa	166.54
9.08 kPa	172.28
9.77 kPa	174.29
11.5 kPa	178.94
12.15 kPa	180.66
13.41 kPa	183.46
15.01 kPa	186.98
16.24 kPa	189.28
17.48 kPa	191.66
19.68 kPa	195.37
21.06 kPa	197.53
24.35 kPa	202.28
25.56 kPa	203.78
26.76 kPa	205.32
31.46 kPa	210.79
34.27 kPa	213.8
36.87 kPa	216.33
41.72 kPa	220.8
45.99 kPa	224.32
51.49 kPa	228.52
55.34 kPa	231.23
61.61 kPa	235.37
65.28 kPa	237.58
70.2 kPa	240.51
74.34 kPa	242.70
79.67 kPa	245.50
83.95 kPa	247.64
89.76 kPa	250.37
94.77 kPa	252.61
98.14 kPa	254.08
101.3 kPa	255.44
